According to publication PMC13184981, “Discovery and Development of a Potent LIMK2 Isoform-Specific Degrader” (ACS Chemical Biology, 2026):

Tests used:
EGFP–LIMK2 = target: T1, EGFP–LIMK2 (Homo sapiens, UniProt P53671); experiment: EGFP-LIMK2 depletion live-cell assay (Incucyte); format: cell-based; settings: for EGFP–LIMK2 degradation (in words): live cells, over 72 h
T1 construct: P2A remnant (from EGFP-LIMK2-P2A-mCherry; that residues stay on LIMK2 after self-cleavage is own knowledge) (C); expressed in transfected cells; host or cells: HuCCT1 (lentiviral transduction, doxycycline-inducible pCW57 vector)
Description: To enable a more comprehensive and rapid evaluation of the synthesized PROTACs, we generated a stable, doxycycline-inducible HuCCT1 cell line that expressed an N-terminally fused EGFP–LIMK2 protein. […] The degradation activity of the synthesized PROTACs set was screened at five concentrations ranging from 1 nM to 1000 nM over 72 h using live-cell imaging (Figure E).
LIMK2 was cloned into pcDNA5-EGFP-NLS-P2A-mCherry-PTS1 (Addgene plasmid #87803) by replacing the NLS sequence with the LIMK2 sequence. pcDNA5-EGFP-NLS-P2A-mCherry-PTS1 was a gift from Andrea Musacchio. Subsequently, EGFP-[…]-P2A-mCherry was cloned into the lentiviral vector pCW57-MCS1-P2A-MCS2 (Hygro) (Addgene plasmid #80922) to generate pCW57-HygB-EGFP-LIMK2-P2A-mCherry. pCW57-MCS1-P2A-MCS2 (Hygro) was a gift from Adam Karpf.
HEK293T cells (ATCC, CRL-3216) were cultured in Dulbecco’s Modified Eagle’s Medium (DMEM), while HUCCT1 cells (ATCC, CRL-1997) were cultured in RPMI medium supplemented with 10% fetal bovine serum (FBS) and 1% penicillin/streptomycin (P/S) antibiotic mix (all from Sigma-Aldrich, St. Louis, Missouri, USA). Lentiviral particles were produced in HEK293T cells using pCW57-HygB-EGFP-LIMK2-[…]P2A-mCherry, pMD2.G, and psPAX2. HUCCT1 cells were transduced with lentivirus to express LIMK2.
Briefly, the cells were plated and propagated in 6-well plates overnight. The next day, transduction with viruses was performed. Two days later, transduced cells with pCW57-HygB-EGFP-LIMK2-P2A-mCherry plasmids were selected using 100 μg/mL Hygromycin B. After at least three passages, the cells were sorted for the same populations of RFP- and GFP-expressing cells using the SH800S Cell Sorter (Sony Biotechnology, San Jose, CA, USA). Stable pools of cells were maintained in the same medium used for selection.
To assess the turnover of LIMK2, we used the Incucyte S3 or XS5 live-cell imaging system and performed the assay as previously described. , Briefly, 2,000 HUCCT1 cells stably expressing EGFP-LIMK2-P2A-mCherry were seeded per well in a 384-well plate in 50 μL of RPMI medium supplemented with 10% fetal bovine serum (FBS) and 1% penicillin/streptomycin. Cells were incubated for 24 h before treatment. To induce LIMK2 expression, 1 μg/mL of doxycycline (Sigma-Aldrich, D9891–1G) was added at the time of seeding.
After 24 h, 50 μL of medium containing either 0.1% DMSO or the desired concentration of PROTACs was added. Fluorescence in three channels–GFP, RFP, and phase contrast (cell confluence)–was monitored every 2 h for 72 h using the Incucyte S3 or XS5 (Sartorius, Germany). LIMK2 turnover was quantified by calculating the ratio of total fluorescence intensity of RFP to GFP. Each time point represents the average ratio from three technical replicates.

LIMK2 [1] = target: T2, LIMK2 (Homo sapiens, UniProt P53671); experiment: Western blot of endogenous LIMK2 in HuCCT1 cells; format: cell-based; settings: HuCCT1, 6 h treatment
Description: HuCCT1 cell line was cultured in Roswell Park Memorial Institute (RPMI) 1640 medium supplemented with GlutaMAX, 10% fetal bovine serum (FBS), and 1% penicillin/streptomycin. The cell line was maintained in an incubator with 5% CO2 at 37 °C. For the treatment, 3 × 10^5 cells were plated and treated with the compounds and DMSO as the control for 6 h. The cells were then lysed using RIPA buffer (50 mM Tris-HCl pH 7.4, 150 mM NaCl, 1% Triton X-100, 1% NaDOC, 0.1% SDS, 1 mM EDTA), freshly supplemented with protease and phosphatase inhibitor cocktails (Sigma-Aldrich, Darmstadt, Germany). After 1 h incubation on ice, the lysates were centrifuged for 30 min at […], and the protein-containing supernatant was collected. The protein concentrations were determined using Protein Assay Dye Reagent Concentrate (Bradford, Bio-Rad, Hercules, CA, USA) and Pre-Diluted Protein Assay Standards: Bovine Serum Albumin (BSA) Set (Thermo Fisher Scientific, Darmstadt, Germany). Then, equal amounts of protein was mixed with Roti-Load 1 dye (Carl Roth, Karlsruhe, Germany) and 4x Laemmli Buffer (Bio-Rad, Hercules, CA, USA), denatured at 95 °C, and run on NuPAGE 4–12% bis-Tris gels (Thermo Fisher Scientific). Proteins were blotted on methanol-activated PVDF Transfer Membranes (Thermo Fisher Scientific) using the wet transfer method with the transfer buffer (Thermo Fisher Scientific) and 20% methanol. Afterward, the membranes were blocked with 5% milk or 3% BSA in 0.1% TBS-T for 1 h at RT and incubated overnight at 4 °C with primary antibodies: GAPDH (catalog no. 2118, Cell Signaling Technology, MA, USA, 1:1000 dilution), LIMK1 (catalog no. 3842, Cell Signaling Technology, 1:1000 dilution), LIMK2 (catalog no. 3845, 1:500 dilution), phospho-Cofilin (catalog no. 3313, Cell Signaling Technology, 1:1000 dilution), Cofilin (catalog no. 5175, Cell Signaling Technology, 1:1000 dilution). Then, the membranes were washed with 0.1% TBS-T and incubated with secondary horseradish-peroxidase (HRP)-conjugated antibody for 2 h (catalog no. 7074, Cell Signaling Technology, 1:3000 dilution). The membranes were washed again with 0.1% TBS-T before they were developed using X-ray films (Fujifilm, Dusseldorf, Germany).

LIMK1 = target: T3, LIMK1 (Homo sapiens, UniProt P53667); experiment: Western blot of endogenous LIMK1 in HuCCT1 cells; format: cell-based; settings: HuCCT1, 6 h treatment
T3 construct: host or cells: HEK293T
Description: HuCCT1 cell line was cultured in Roswell Park Memorial Institute (RPMI) 1640 medium supplemented with GlutaMAX, 10% fetal bovine serum (FBS), and 1% penicillin/streptomycin. The cell line was maintained in an incubator with 5% CO2 at 37 °C. For the treatment, 3 × 10^5 cells were plated and treated with the compounds and DMSO as the control for 6 h. The cells were then lysed using RIPA buffer (50 mM Tris-HCl pH 7.4, 150 mM NaCl, 1% Triton X-100, 1% NaDOC, 0.1% SDS, 1 mM EDTA), freshly supplemented with protease and phosphatase inhibitor cocktails (Sigma-Aldrich, Darmstadt, Germany). After 1 h incubation on ice, the lysates were centrifuged for 30 min at […], and the protein-containing supernatant was collected. The protein concentrations were determined using Protein Assay Dye Reagent Concentrate (Bradford, Bio-Rad, Hercules, CA, USA) and Pre-Diluted Protein Assay Standards: Bovine Serum Albumin (BSA) Set (Thermo Fisher Scientific, Darmstadt, Germany). Then, equal amounts of protein was mixed with Roti-Load 1 dye (Carl Roth, Karlsruhe, Germany) and 4x Laemmli Buffer (Bio-Rad, Hercules, CA, USA), denatured at 95 °C, and run on NuPAGE 4–12% bis-Tris gels (Thermo Fisher Scientific). Proteins were blotted on methanol-activated PVDF Transfer Membranes (Thermo Fisher Scientific) using the wet transfer method with the transfer buffer (Thermo Fisher Scientific) and 20% methanol. […]

VHL:ELOB:ELOC = VHL:ELOB:ELOC (Homo sapiens, UniProt P40337); experiment: SPR VHL binary complex affinity and kinetics; format: binding; settings: read-out: binary affinity toward VHL
Description: (§1) Approximately 1000 RU of biotinylated VHL:ELOB:ELOC was loaded onto a Series S CM5 chip coated with Streptavidin. All experiments were performed at 25 °C. The chip was equilibrated with a running buffer containing 20 mM HEPES, pH 7.4, 150 mM NaCl, 0.5 mM TCEP, 1% BSA, and 0.05% Tween 20.
To assess ternary complex formation, 1 μM of VHL-binding PROTAC was preincubated with a 2-fold molar excess of LIMK1 to promote binary complex formation and minimize the hook effect. The resulting binary complex was injected over the immobilized VHL:ELOB:ELOC surface at a flow rate of 30 μL/min for 60 s, followed by a dissociation phase of 180 s. An increase in resonance signal relative to the binary complex alone was used as an indicator of ternary complex formation. In separate experiments, binary and ternary complex affinities were measured and compared using serial dilutions as described for LIMK1. Additionally, the association rate constant (k a), dissociation rate constant (k d) were determined for the binary complexes.

[2] = target: T4, VHL:ELOB:ELOC and LIMK1 kinase domain (Homo sapiens, UniProt P40337+P53667); experiment: SPR VHL ternary complex formation with LIMK1; format: binding
T4 construct: (330–S637), LIMK1-avi; 6xHis-Z-tag (TEV-cleavable) (N, cleaved yes); made in house; host or cells: LIMK1: insect cells (baculovirus)
Description: Surprised by the weak target engagement of VHL-based LIMK PROTACs, we investigated whether they form a stable ternary complex. To address this, we established an SPR-based ternary complex assay using immobilized VHL:ELOB/C complex on an SPR chip. In this assay format, the binary complex was formed by preincubating PROTACs with a 2-fold excess of purified LIMK1 kinase domain to avoid the hook effect. The binary complex was passed over an SPR surface immobilized with the VHL:ELOB/C complex. Ternary complex formation was detected as a large signal increase, as expected for the large molecular weight increase upon binding of the LIMK1 PROTAC complex (Figure C).
as §1
To assess ternary complex formation, 1 μM of VHL-binding PROTAC was preincubated with a 2-fold molar excess of LIMK1 to promote binary complex formation and minimize the hook effect. […] In separate experiments, binary and ternary complex affinities were measured and compared using serial dilutions as described for LIMK1. Additionally, the association rate constant (k a), dissociation rate constant (k d) were determined for the binary complexes.

HEK293T cells = experiment: CellTiter-Glo 2.0 cell viability assay; format: cell-based, human; settings: 24-h treatment, 25 nM to 20 µM
Description: The effects of the PROTAC on cell viability were determined using the CellTiter-Glo 2.0 Cell Viability Assay (Promega, G9241) following the manufacturer’s protocol. […] 40 μL of assay reagent was added and incubated for 10 min at RT. Filtered luminescence was measured using a PHERAstar plate reader (BMG Labtech), and data were analyzed using GraphPad Prism 9.

LIMK2 [3] = target: T2, LIMK2; experiment: NanoBRET cellular target engagement, LIMK2; format: cell-based; parameters: host or cells: HEK293T; settings: HEK293T cells, Tracer K10, 2 h; read-out: LIMK2 NanoBRET IC50
Description: Gene encoding LIMK1 (Promega, NV3391) and LIMK2 (Promega, NV1531), CRBN (Promega, N2741) proteins cloned in frame with NanoLuc fusion tag at the C-terminus, were transfected into HEK293T cells using FuGENE HD (Promega, E2312) following manufacture’s protocol and proteins were allowed to express for 20 h at 37 °C and 5% CO2. […] The 10 μL of transfected cells after trypsinization and resuspending in Opti-MEM (Life Technologies, 31985070) were dispensed into each well of the 384-well plate (Greiner 781207) at a cell density of 2 × 10^5 cells/mL. For dose–response BRET measurements, compounds at various concentrations, immediately followed by Tracer K10 (Promega, Tracer DB ID: T000008) for LIMK1 and LIMK2, CRBN Tracer (Promega, Tracer DB ID: T000018) for CRBN at an optimum KD concentration chosen from TracerDB (tracerdb.org), were pipetted using an Echo acoustic dispenser (Labcyte). The system was allowed to equilibrate for 2 h at 37 °C and 5% CO2 before BRET measurements. To measure BRET signal, the NanoBRET NanoGlo Substrate (Promega, N1573) was added as per the manufacturer’s protocol, and filtered luminescence was measured on a PHERAstar plate reader (BMG Labtech) equipped with a luminescence filter pair (450 nm BP filter (donor) and 610 nm LP filter (acceptor)). For lysed NanoBRET measurement, 25 nL of Digitonin (0.05 μg/μL) was pipetted to each well using Labcyte, and the plate was incubated for 5 min at 37 °C and 5% CO2. After incubation, the BRET signals were measured by a PHERAstar plate reader following the same procedure as intact NanoBRET measurement. […] The BRET ratios are normalized to both of them in the prism output data file. Competitive displacement data were then normalized to controls and were graphed using GraphPad Prism 9 software employing a normalized 3-parameter curve fit with the following equation: Y = 100/(1 + 10̂(X – logIC50)).

T1 sequence (P53671 whole entry): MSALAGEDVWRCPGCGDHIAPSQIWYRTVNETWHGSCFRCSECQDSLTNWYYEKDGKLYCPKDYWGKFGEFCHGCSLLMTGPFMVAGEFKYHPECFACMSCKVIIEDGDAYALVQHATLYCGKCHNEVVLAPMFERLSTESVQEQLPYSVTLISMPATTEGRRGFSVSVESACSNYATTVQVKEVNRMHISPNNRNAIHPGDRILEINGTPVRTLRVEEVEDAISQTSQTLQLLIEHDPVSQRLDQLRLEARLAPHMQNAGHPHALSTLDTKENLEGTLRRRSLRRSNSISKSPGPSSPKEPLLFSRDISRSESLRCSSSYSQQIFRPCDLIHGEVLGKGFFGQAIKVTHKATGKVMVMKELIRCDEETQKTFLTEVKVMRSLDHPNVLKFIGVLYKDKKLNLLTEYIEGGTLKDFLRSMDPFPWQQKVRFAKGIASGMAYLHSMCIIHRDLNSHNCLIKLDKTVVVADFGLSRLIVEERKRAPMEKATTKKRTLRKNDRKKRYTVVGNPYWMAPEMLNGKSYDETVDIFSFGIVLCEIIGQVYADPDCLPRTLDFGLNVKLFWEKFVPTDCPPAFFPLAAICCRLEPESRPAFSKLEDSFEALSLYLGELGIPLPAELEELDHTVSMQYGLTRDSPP
T2 sequence (P53671 whole entry): as above
Chain of VHL:ELOB:ELOC (P40337 54-213 limits assumed, species assumed): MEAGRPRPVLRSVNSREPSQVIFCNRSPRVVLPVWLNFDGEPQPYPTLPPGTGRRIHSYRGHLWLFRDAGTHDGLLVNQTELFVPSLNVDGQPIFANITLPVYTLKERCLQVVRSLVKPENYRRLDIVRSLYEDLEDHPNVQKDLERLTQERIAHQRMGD
Chain of VHL:ELOB:ELOC (Q15370 whole entry partner, species assumed): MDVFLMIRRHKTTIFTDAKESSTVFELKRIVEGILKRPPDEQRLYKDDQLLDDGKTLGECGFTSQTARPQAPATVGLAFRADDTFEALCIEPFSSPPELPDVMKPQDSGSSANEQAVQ
Chain of VHL:ELOB:ELOC (Q15369 17-112 partner limits assumed, species assumed): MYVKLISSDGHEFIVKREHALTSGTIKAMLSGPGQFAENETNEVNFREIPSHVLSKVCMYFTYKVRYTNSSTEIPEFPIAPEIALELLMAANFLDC
T4 sequence (P40337 54-213 limits assumed, species assumed): as the sequence (P40337 54-213 limits assumed, species assumed) above
T4 sequence (Q15370 whole entry partner, species assumed, the tested form may be a part): as the sequence (Q15370 whole entry partner, species assumed) above
T4 sequence (Q15369 17-112 partner limits assumed, species assumed): as the sequence (Q15369 17-112 partner limits assumed, species assumed) above
T4 sequence (P53667 330-637 limits assumed, species assumed): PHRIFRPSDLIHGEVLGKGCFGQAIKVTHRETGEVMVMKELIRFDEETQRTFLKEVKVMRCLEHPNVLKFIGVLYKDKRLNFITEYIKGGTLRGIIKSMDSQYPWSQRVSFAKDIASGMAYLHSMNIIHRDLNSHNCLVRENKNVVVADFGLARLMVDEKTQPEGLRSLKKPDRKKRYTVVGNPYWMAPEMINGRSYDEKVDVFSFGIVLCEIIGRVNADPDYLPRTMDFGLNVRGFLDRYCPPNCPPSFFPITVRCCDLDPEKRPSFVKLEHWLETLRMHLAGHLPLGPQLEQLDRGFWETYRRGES
T3 sequence (P53667 whole entry): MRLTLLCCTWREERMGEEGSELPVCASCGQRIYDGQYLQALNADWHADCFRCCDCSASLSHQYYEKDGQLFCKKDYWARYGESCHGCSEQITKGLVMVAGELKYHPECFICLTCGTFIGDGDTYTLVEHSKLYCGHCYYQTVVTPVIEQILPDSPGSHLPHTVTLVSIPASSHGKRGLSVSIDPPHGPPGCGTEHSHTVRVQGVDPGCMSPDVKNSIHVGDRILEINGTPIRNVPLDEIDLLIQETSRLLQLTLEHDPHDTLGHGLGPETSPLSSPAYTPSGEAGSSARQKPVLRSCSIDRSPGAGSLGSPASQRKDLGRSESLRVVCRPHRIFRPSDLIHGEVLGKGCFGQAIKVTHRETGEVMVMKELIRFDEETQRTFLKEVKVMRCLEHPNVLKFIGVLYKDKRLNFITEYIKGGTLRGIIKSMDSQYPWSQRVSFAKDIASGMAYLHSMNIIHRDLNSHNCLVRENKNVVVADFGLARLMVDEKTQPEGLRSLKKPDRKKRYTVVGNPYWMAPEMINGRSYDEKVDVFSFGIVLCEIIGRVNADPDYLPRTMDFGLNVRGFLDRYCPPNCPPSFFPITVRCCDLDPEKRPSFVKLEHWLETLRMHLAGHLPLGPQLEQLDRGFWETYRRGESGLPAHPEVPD

Cc1ncc(-c2ccc(CNC(=O)[C@@H]3C[C@@H](O)CN3C(=O)[C@@H](NC(=O)c3cn(CCCCCC(=O)Nc4ncc(-c5cc(C(F)F)nn5-c5c(Cl)cccc5Cl)s4)nn3)C(C)(C)C)cc2)s1 [23c]
EGFP–LIMK2 degradation (in words) (EGFP–LIMK2): moderate LIMK2 degradation | LIMK2 degradation (Western blot) (LIMK2 [1]): modest LIMK2 degradation at 1 μM

O=C1CCC(N2C(=O)c3cccc(OCc4cn(CC(=O)Nc5ncc(-c6cc(C(F)F)nn6-c6c(Cl)cccc6Cl)s5)nn4)c3C2=O)C(=O)N1 (stereo not drawn) [21a]
LIMK2 degradation (Western blot) (LIMK2 [1]): did not degrade either isoform | LIMK1 degradation (Western blot) (LIMK1): did not degrade either isoform

Cc1ncc(-c2ccc(CNC(=O)[C@@H]3C[C@@H](O)CN3C(=O)[C@@H](NC(=O)CCCc3cn(CCCCCC(=O)Nc4ncc(-c5cc(C(F)F)nn5-c5c(Cl)cccc5Cl)s4)nn3)C(C)(C)C)cc2)s1 [23i]
Kd (VHL:ELOB:ELOC): > 1000 nM | higher affinity upon formation of ternary complex vs binary [2]: 10 fold

Cc1ncc(-c2ccc(CNC(=O)[C@@H]3C[C@@H](O)CN3C(=O)[C@@H](NC(=O)CCc3cn(CCCCCC(=O)Nc4ncc(-c5cc(C(F)F)nn5-c5c(Cl)cccc5Cl)s4)nn3)C(C)(C)C)cc2)s1 [23f]
Kd (VHL:ELOB:ELOC): > 1000 nM

Cc1ncc(-c2ccc(CNC(=O)[C@@H]3C[C@@H](O)CN3C(=O)[C@@H](NC(=O)CCCc3cn(CCCCC(=O)Nc4ncc(-c5cc(C(F)F)nn5-c5c(Cl)cccc5Cl)s4)nn3)C(C)(C)C)cc2)s1 [23h]
Kd (VHL:ELOB:ELOC): > 1000 nM | higher affinity upon formation of ternary complex vs binary [2]: 10 fold

Cc1c(OCc2cn(CCCCC(=O)Nc3ncc(-c4cc(C(F)F)nn4-c4c(Cl)cccc4Cl)s3)nn2)cccc1N1CCC(=O)N(C)C1=O [THNAN69-NC]
EGFP–LIMK2 degradation (in words) (EGFP–LIMK2): no degradation of LIMK2 | LIMK2 degradation (Western blot) (LIMK2 [1]): did not induce any LIMK2 degradation | cytotoxic effects (HEK293T cells): no cytotoxic effects

Cc1c(OCc2cn(CCCCCC(=O)Nc3ncc(-c4cc(C(F)F)nn4-c4c(Cl)cccc4Cl)s3)nn2)cccc1N1CCC(=O)NC1=O [22c]
DC50 (EGFP–LIMK2; HuCCT1 EGFP–LIMK2 cells, live-cell kinetic assay over 72 h, read-out: DC50 (LIMK2 degradation)): 13.7 nM | potency enhancement (DC50) relative to 21b (EGFP–LIMK2; vs 21b): 2.4 fold | IC50 (LIMK2 [3]): 80 nM
